Results taken from a compilation of properties of binary mixtures (doi:10.1007/s10953-010-9562-5).

Assay: xn = mol fraction of the nth substance listed
Conditions: 101 kPa

CCCC[N+]1(C)CCCC1.O=S(=O)([N-]S(=O)(=O)C(F)(F)F)C(F)(F)F + CC1COC(=O)O1
Conditions	electrical conductivity [S/m]	viscosity [mPa·s]
293.15 K, x2 = 0.68	0.843	12.36
293.15 K, x2 = 0.74	0.884	9.88
293.15 K, x2 = 0.84	0.908	6.05
293.15 K, x2 = 0.89	0.853	4.71
293.15 K, x2 = 0.95	0.692	3.65
293.15 K, x2 = 0.97	0.582	–
298.15 K, x2 = 0	0.364	68.16
298.15 K, x2 = 0.05	0.394	56.05
298.15 K, x2 = 0.11	0.425	47.09
298.15 K, x2 = 0.16	0.46	40.44
298.15 K, x2 = 0.21	0.497	35.42
298.15 K, x2 = 0.26	0.538	31.51
298.15 K, x2 = 0.47	0.73	20.25
298.15 K, x2 = 0.53	0.784	17.72
298.15 K, x2 = 0.58	0.839	15.23
298.15 K, x2 = 0.68	0.942	10.56
298.15 K, x2 = 0.74	0.982	8.51
298.15 K, x2 = 0.79	1	6.74
298.15 K, x2 = 0.84	0.997	5.29
298.15 K, x2 = 0.89	0.934	4.14
298.15 K, x2 = 0.95	0.757	3.26
298.15 K, x2 = 0.97	0.628	–
303.15 K, x2 = 0	0.426	54.05
303.15 K, x2 = 0.05	0.458	44.95
303.15 K, x2 = 0.11	0.494	38.15
303.15 K, x2 = 0.16	0.532	33.05
303.15 K, x2 = 0.26	0.618	26.04
303.15 K, x2 = 0.32	0.666	23.45
303.15 K, x2 = 0.37	0.717	21.15
303.15 K, x2 = 0.47	0.828	16.91
303.15 K, x2 = 0.53	0.886	14.85
303.15 K, x2 = 0.58	0.944	12.83
303.15 K, x2 = 0.68	1.05	9.03
303.15 K, x2 = 0.79	1.11	5.9
303.15 K, x2 = 0.89	1.02	3.7
303.15 K, x2 = 0.95	0.826	2.93
303.15 K, x2 = 0.97	0.652	–
308.15 K, x2 = 0	0.505	44.38
308.15 K, x2 = 0.05	0.54	36.9
308.15 K, x2 = 0.11	0.578	31.36
308.15 K, x2 = 0.16	0.619	27.23
308.15 K, x2 = 0.21	0.663	24.11
308.15 K, x2 = 0.26	0.711	21.64
308.15 K, x2 = 0.32	0.762	19.59
308.15 K, x2 = 0.42	0.872	16.04
308.15 K, x2 = 0.47	0.931	14.35
308.15 K, x2 = 0.53	0.992	12.68
308.15 K, x2 = 0.58	1.05	11.01
308.15 K, x2 = 0.63	1.11	9.39
308.15 K, x2 = 0.68	1.16	7.85
308.15 K, x2 = 0.74	1.2	6.44
308.15 K, x2 = 0.79	1.22	5.2
308.15 K, x2 = 0.84	1.2	4.17
308.15 K, x2 = 0.89	1.11	3.34
308.15 K, x2 = 0.95	0.892	2.68
308.15 K, x2 = 0.97	0.691	–
313.15 K, x2 = 0	0.57	35.76
313.15 K, x2 = 0.05	0.611	30.14
313.15 K, x2 = 0.11	0.654	25.92
313.15 K, x2 = 0.16	0.701	22.74
313.15 K, x2 = 0.26	0.803	18.29
313.15 K, x2 = 0.37	0.916	15.11
313.15 K, x2 = 0.42	0.975	13.68
313.15 K, x2 = 0.53	1.1	10.88
313.15 K, x2 = 0.58	1.16	9.5
313.15 K, x2 = 0.63	1.21	8.15
313.15 K, x2 = 0.68	1.26	6.87
313.15 K, x2 = 0.74	1.29	5.69
313.15 K, x2 = 0.89	1.18	3.02
313.15 K, x2 = 0.95	0.946	2.45
318.15 K, x2 = 0.11	–	21.73
318.15 K, x2 = 0.16	–	19.16
318.15 K, x2 = 0.21	–	17.18
318.15 K, x2 = 0.26	–	15.58
318.15 K, x2 = 0.32	–	14.22
318.15 K, x2 = 0.37	–	12.99
318.15 K, x2 = 0.42	–	11.81
318.15 K, x2 = 0.53	–	9.47
318.15 K, x2 = 0.58	–	8.3
318.15 K, x2 = 0.63	–	7.16
318.15 K, x2 = 0.68	–	6.06
318.15 K, x2 = 0.74	–	5.05
318.15 K, x2 = 0.79	–	4.16
318.15 K, x2 = 0.84	–	3.39
318.15 K, x2 = 0.95	–	2.26
